Test results as given in patent US20230192705A1, “SHP2 INHIBITORS, COMPOSITIONS AND USES THEREOF” (Betta Pharmaceuticals Co., Ltd, priority 2020, published 2023).
Read-outs that look alike come from different tables or passages of the source.

Tests used:
hERG channel = molecular target: T1, hERG channel (Homo sapiens, UniProt Q12809); assay: Patch clamp assay to test the effect of compound on hERG channel; type: cell-based; details: manual patch clamp, HEK 293 cells expressed with hERG, concentration for half maximum effect
T1 construct: expressed in transfected cells; host or cells: HEK-293
T1 sequence (Q12809 whole entry): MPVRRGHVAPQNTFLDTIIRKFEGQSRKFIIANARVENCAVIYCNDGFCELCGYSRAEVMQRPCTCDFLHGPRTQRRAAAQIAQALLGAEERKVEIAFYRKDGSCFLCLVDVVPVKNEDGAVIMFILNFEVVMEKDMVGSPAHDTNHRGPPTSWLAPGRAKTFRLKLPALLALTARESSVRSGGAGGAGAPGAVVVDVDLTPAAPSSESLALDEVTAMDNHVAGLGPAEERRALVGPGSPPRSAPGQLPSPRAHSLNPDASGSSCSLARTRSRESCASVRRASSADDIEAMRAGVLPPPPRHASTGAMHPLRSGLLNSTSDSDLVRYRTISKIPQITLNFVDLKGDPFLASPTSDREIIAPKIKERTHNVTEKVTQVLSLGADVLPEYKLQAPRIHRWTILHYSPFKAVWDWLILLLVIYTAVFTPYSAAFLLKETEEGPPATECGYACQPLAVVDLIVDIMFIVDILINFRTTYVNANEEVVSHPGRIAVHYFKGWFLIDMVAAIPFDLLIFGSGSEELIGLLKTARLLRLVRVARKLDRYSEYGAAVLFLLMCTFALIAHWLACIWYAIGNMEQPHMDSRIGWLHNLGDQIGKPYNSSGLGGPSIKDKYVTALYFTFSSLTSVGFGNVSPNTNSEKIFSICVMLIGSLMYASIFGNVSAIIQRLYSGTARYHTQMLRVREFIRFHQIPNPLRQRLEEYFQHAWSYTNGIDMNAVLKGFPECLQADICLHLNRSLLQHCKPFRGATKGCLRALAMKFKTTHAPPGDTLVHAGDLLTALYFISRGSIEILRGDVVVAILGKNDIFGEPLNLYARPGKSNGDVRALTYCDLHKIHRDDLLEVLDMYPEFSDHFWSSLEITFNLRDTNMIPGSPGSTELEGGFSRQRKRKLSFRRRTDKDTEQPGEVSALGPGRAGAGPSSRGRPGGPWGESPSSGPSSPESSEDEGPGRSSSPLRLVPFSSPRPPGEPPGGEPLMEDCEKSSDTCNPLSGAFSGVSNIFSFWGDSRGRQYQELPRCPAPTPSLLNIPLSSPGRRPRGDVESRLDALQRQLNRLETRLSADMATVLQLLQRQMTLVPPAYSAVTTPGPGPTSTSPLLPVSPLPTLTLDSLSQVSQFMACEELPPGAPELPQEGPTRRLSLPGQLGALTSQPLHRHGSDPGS
Experimental: 10 mL extracellular solution was used to dilute the stock solution, making the final concentrations of test compound were 0.3 μM, 1 μM, 3 μM, 10 μM and 30 μM.
The solubility of compound was visually observed.
The cell line was derived from HEK-293 cells, and grown in a humidified environment at 37° C. under 5% CO2, using the media formulation below. The cell line should not be allowed to exceed 80% confluence within the culture vessel to prevent contact inhibition causing senescence and should thus be passaged every 3/4 days using a seeding density of 2*10^6 cells per T175 flask. Cell lines were be pre-washed with phosphate buffered saline before harvesting with Trypsin/EDTA and seeded into new flasks.
HEK 293 cells expressed with hERG were plated on cover slips overnight with the cell density less than 50% of confluence. Cells used for electrophysiological study were transferred to a small cell bath (1 mL) mounted on the stage of an inverted microscope (Diaphot, Nikon) and were perfused with external solution containing (in mM) 130 NaCl, 4 KCl, 1.8 CaCl2), 1 MgCl2, 10 glucose and 10 HEPES (pH 7.4 with NaOH), the perfusion rate was 4 mL/min. The internal pipette solution contained (in mM) 130 KCl, 1 MgCl2, 5 ethylene glycol-bis(baminoethyl ether)-N,N,N8,N8-tetraacetic acid, 5 MgATP and 10 HEPES (pH 7.2 with KOH). An HEKA EPC-10 patch-clamp amplifier and PATCHMASTER acquisition program were used to record membrane currents (HEKA Instruments IncD-67466 Lambrecht/Pfalz Germany). All experiments were performed at room temperature (22-23° C.).
The Model P-97 micropipette puller (Sutter Instrument Company, One Digital Drive, Novato, Calif. 94949) was used to pull glass patch pipettes (BF150-86-10) in all experiments.
The experiments were initiated with a 2 min vehicle control period after forming a whole cell configuration with less 5% run-down in 5 min and the tail currents in the report were at least greater than 500 pA. After a 2 min vehicle control period, the perfusion was switched to the reservoir containing the compound at the first concentration. The same procedure was repeated 3-5 times so that each cell was exposed to 4-6 escalating concentrations of compound. The time courses for block and unblock of hERG during compounds exposure and washout were continuously recorded.
The peak tail of hERG was generated by applying 2-sec depolarizing every 12 sec steps from a holding potential of −80 mV, the peak of tail currents were measured at a 5-sec repolarizing pulse at −50 mV.
hERG peak tail currents were directly measured from a 5 sec repolarization pulse at −50 mV. The fraction of control current was plotted as a function of logarithm of compound concentration. To determine the concentration of compound for halfmaximum effect, the concentration-response curve was fitted by Hill equation as shown follow.
where Y is the observed value, Bottom is the lowest observed value (0), Top is the highest observed value (1), and the Hillcoefficient gives the largest absolute value of the slope of the curve.
Data were analyzed by a combination of PATCHMASTER ((HEKA Instruments IncD-67466 Lambrecht/Pfalz Germany) and Origin (OriginLab Corporation, Northampton, Mass.) software programs.
Data were expressed as mean±SEM.

SHP2 = molecular target: T2, SHP2 (Homo sapiens, UniProt Q06124); assay: SHP2 allosteric inhibitor enzyme activity assay (DiFMUP fluorescence); type: biochemical
T2 sequence (Q06124 1-593): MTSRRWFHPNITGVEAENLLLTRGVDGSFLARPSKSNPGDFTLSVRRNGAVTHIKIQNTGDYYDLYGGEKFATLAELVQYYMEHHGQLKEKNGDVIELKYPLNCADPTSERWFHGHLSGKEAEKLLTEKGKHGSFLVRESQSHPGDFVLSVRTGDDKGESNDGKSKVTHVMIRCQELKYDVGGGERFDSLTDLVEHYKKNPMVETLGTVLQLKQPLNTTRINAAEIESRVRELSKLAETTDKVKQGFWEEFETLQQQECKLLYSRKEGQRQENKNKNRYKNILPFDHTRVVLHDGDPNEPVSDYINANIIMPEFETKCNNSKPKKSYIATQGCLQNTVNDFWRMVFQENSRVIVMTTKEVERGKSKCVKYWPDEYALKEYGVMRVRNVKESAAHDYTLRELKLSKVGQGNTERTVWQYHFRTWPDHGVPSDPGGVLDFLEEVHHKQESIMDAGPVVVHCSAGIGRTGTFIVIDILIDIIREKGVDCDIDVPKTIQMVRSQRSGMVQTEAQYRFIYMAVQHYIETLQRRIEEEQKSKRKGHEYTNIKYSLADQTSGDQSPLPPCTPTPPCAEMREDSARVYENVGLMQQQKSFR
How it was run: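 SHP2 activated by 0.5 μM IRS1_pY1172(dPEG8)pY1222 peptide, 0.2 ng enzyme per well, 1 h at room temperature with compound (1 μM top, 3-fold series), then DiFMUP substrate 1 h. Buffer: 60 mM HEPES, 75 mM NaCl, 75 mM KCl, 0.05% BRIJ-35, 1 mM EDTA, 5 mM DTT. Fluorescence ex 340/em 450 nm; IC50 by variable-slope fit.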

leukemia MV-4-11 cell = assay: Cell proliferation assay (CellTiter-Glo), MV-4-11; type: cell-based; details: Homo sapiens, MV4-11, MV-4-11, 120 hrs, CTG, read-out: Compound on MV-4-11 cell IC50
Experimental: (§1) The effects of the compounds on the proliferation of leukemia MV-4-11 cell and lung cancer NCI-H358 cell were evaluated by in vitro cell test. The assay used in this study was the CELL TITER-GLO (CTG) luminescence assay, which can detect the number of living cells by quantitative determination of ATP. Because ATP is involved in a variety of enzymatic reactions in vivo and is an indicator of the metabolism of living cells, its content can directly reflects the number and state of cells. During the experiment, Celltiter-Glo™ reagent was added to the cell culture medium to measure the luminescence value. The luminescence value was proportional to the amount of ATP, which in turn was positively correlated with the number of living cells. Therefore, ATP content can be used to detect cell viability.
A bottle of MV-4-11 cells in logarithmic growth phase was taken, the cells were collected, centrifuged, resuspend, counted, and then inoculated into 96-well Microplate (Corning #3917), with 4000 cells inoculated in each well. The plates were placed in an incubator at 37° C. and 5% CO2 for 24 hrs culture, and the compounds of the invention were added for conducting.
(§2) An appropriate amount of the compound of the invention was taken for cell treatment, and the final concentration of the compound from high to low was 1000 nM, 333.3 nM, 111.1 nM, 37.04 nM, 12.35 nM, 4.115 nM, 1.372 nm, 0.4572 nM, 0.1524 nM, 0 nM, respectively. The orifice plate was cultured in an incubator at 37° C. and 5% CO2. Only adding medium without adding cell hole was set as blank group. Compound concentration of 0 nM group was zero control group.
After cultured for 120 hrs, MV-4-11 cells were added with 50 μL CellTiter-Glo® Luminescent cell viability assay solution in each well, gently shaken for 2 mins, and incubated at room temperature for 10 mins. The detection values of each well were read on the multi-functional microplate reader.
(§3) The inhibition rate is calculated according to the luminous value reading,
(§4) Inhibition rate %=(1−(administration group value−blank group value)/(control group value−blank group value)*100
(§5) The log (inhibitor) vs. response variable slope of GraphPad Prism was used to fit the dose-response curve and calculate the IC50 of compounds inhibiting cell proliferation.

[1] = test system: lung cancer NCI-H358 cell; assay: Cell proliferation assay (CellTiter-Glo), NCI-H358; type: cell-based; details: Homo sapiens, NCI-H358, 96 hrs, CTG, read-out: Compound on NCI-H358 cell IC50
Experimental: as §1
A bottle of NCI-H358 cells in logarithmic growth phase was taken, the cells were digested and resuspend, counted, and then the cell density was adjusted. After that, the cells were inoculated into a 96-well Ultra-Low Attachment Microplate (Corning #3474), 2000 cells were inoculated in each well, and the well plate was placed in an incubator at 37° C. and 5% CO2, and the compounds of the invention were added for conducting.
as §2
NCI-H358 cells were cultured for 96 hrs, then 50 μL CellTiter-Glo® Luminescent cell viability assay solution was added to each well, and the cells were gently shaken for 2 mins, and incubated at room temperature for 10 mins. The cell reaction system was transferred to 96-well Microplate (Corning #3917). The detection values of each well were read on the multi-functional microplate reader.
as §3, §4, §5

| IC50 (SHP2; class symbols) [nM] | IC50 (SHP2; numeric values) [nM] | SMILES | IC50 (hERG channel) [nM] | also measured |
| --- | --- | --- | --- | --- |
| ≤ 20 |  | N[C@@H]1c2ccccc2CC12CCN(c1nc3[nH]nc(C4(c5ccccc5)CCC4)c3c(=O)[nH]1)CC2 [Example 90] | 4950 |  |
|  | 3.1 | N[C@@H]1c2ccccc2CC12CCN(c1nc3[nH]nc(C4(c5cccc(-n6cccn6)c5)CC4)c3c(=O)[nH]1)CC2 [Example 38, (S)-3-(1-(3-(1H-pyrazol-1-yl)phenyl)cyclopropyl)-6-(1-amino-1,3-dihydrospiro[indene-2,4′-piperidin]-1′-yl)-1,5-dihydro-4H-pyrazolo[3,4-d]pyrimidin-4-one] | 14200 |  |
| ≤ 20 |  | COc1ccccc1C1(c2n[nH]c3nc(N4CCC5(CC4)Cc4ccccc4[C@H]5N)[nH]c(=O)c23)CC1 [Example 17, (S)-6-(1-amino-1,3-dihydrospiro[indene-2,4′-piperidin]-1′-yl)-3-(1-(2-methoxyphenyl)cyclopropyl)-1,5-dihydro-4H-pyrazolo[3,4-d]pyrimidin-4-one] |  | IC50 (leukemia MV-4-11 cell; class symbols): 20 to 60 nM; IC50 ([1]; class symbols): 20 to 60 nM |
|  | 1.9 | N[C@@H]1c2ccccc2CC12CCN(c1nc3[nH]nc(C4(c5cccc(O)c5)CC4)c3c(=O)[nH]1)CC2 [Example 42, (S)-6-(1-amino-1,3-dihydrospiro[indene-2,4′-piperidin]-1′-yl)-3-(1-(3-hydroxyphenyl)cyclopropyl)-1,5-dihydro-4H-pyrazolo[3,4-d]pyrimidin-4-one] | > 30000 |  |

The remaining lines, values behind:

| SMILES | IC50 (SHP2; class symbols) [nM] | IC50 (SHP2; numeric values) [nM] | IC50 (hERG channel) [nM] | also measured |
| --- | --- | --- | --- | --- |
| N[C@@H]1c2ccccc2CC12CCN(c1nc3[nH]nc(C4(c5nc6ccccc6o5)CC4)c3c(=O)[nH]1)CC2 [Example 252, (S)-6-(1-amino-1,3-dihydrospiro[indene-2,4′-piperidin]-1′-yl)-3-(1-(benzo[d]oxazol-2-yl)cyclopropyl)-1,5-dihydro-4H-pyrazolo[3,4-d]pyrimidin-4-one] | ≤ 20 |  | 20900 |  |
| COc1ccc(C2(c3n[nH]c4nc(N5CCC6(CC5)Cc5ccccc5[C@H]6N)[nH]c(=O)c34)CC2)cc1OC [Example 221, (S)-6-(1-amino-1,3-dihydrospiro[indene-2,4′-piperidin]-1′-yl)-3-(1-(3,4-dimethoxyphenyl)cyclopropyl)-1,5-dihydro-4H-pyrazolo[3,4-d]pyrimidin-4-one] | ≤ 20 |  | > 30000 |  |
| COc1ccc(C2(c3n[nH]c4nc(N5CCC6(CC5)Cc5ccccc5[C@H]6N)[nH]c(=O)c34)CC2)cc1 [Example 19, (S)-6-(1-amino-1,3-dihydrospiro[indene-2,4′-piperidin]-1′-yl)-3-(1-(4-methoxyphenyl)cyclopropyl)-1,5-dihydro-4H-pyrazolo[3,4-d]pyrimidin-4-one] |  |  | 11700 | IC50 (leukemia MV-4-11 cell; class symbols): ≤ 20 nM; IC50 ([1]; class symbols): 20 to 60 nM |
| N[C@@H]1c2ccccc2CC12CCN(c1nc3[nH]nc([C@H]4C[C@@H]4c4ccccc4)c3c(=O)[nH]1)CC2 [Example 185] |  | 0.48 | 590 |  |
| N[C@@H]1c2ccccc2CC12CCN(c1nc3[nH]nc(C4(n5cccn5)CC4)c3c(=O)[nH]1)CC2 [Example 255, (S)-3-(1-(1H-pyrazol-1-yl)cyclopropyl)-6-(1-amino-1,3-dihydrospiro[indene-2,4′-piperidin]-1′-yl)-1,5-dihydro-4H-pyrazolo[3,4-d]pyrimidin-4-one] |  |  | > 30000 |  |
| CCC(c1ccccc1)c1n[nH]c2nc(N3CCC4(CC3)Cc3ccccc3[C@H]4N)[nH]c(=O)c12 (stereo partly drawn) [Example 217, 6-((S)-1-amino-1,3-dihydrospiro[indene-2,4′-piperidin]-1′-yl)-3-(1-phenylpropyl)-1,5-dihydro-4H-pyrazolo[3,4-d]pyrimidin-4-one] | ≤ 20 |  | 540 |  |
| N[C@@H]1c2ccccc2CC12CCN(c1nc3[nH]nc(C4=CCCCc5ccccc54)c3c(=O)[nH]1)CC2 [Example 125] |  | 1.6 |  | IC50 (leukemia MV-4-11 cell; numeric values): 1.9 nM; IC50 ([1]; numeric values): 1.1 nM |
| N[C@@H]1c2ccccc2CC12CCN(c1nc3[nH]nc(C4=CCOc5cc(F)ccc54)c3c(=O)[nH]1)CC2 [Example 115, (S)-6-(1-amino-1,3-dihydrospiro[indene-2,4′-piperidin]-1′-yl)-3-(7-fluoro-2H-chromen-4-yl)-1,5-dihydro-4H-pyrazolo[3,4-d]pyrimidin-4-one] | ≤ 20 |  |  | IC50 (leukemia MV-4-11 cell; numeric values): 1.4 nM; IC50 ([1]; numeric values): 1.2 nM |
